Data: paper PMC10714399, “Open Source Antibiotics: Simple Diarylimidazoles Are Potent against Methicillin-Resistant Staphylococcus aureus” (ACS Infectious Diseases, 2023)
In brackets after ≈: the same amount, converted by molar mass. Like-named read-outs stand apart in the source and are kept apart here.

Experiments:
[1] = Kinetic solubility estimation using nephelometry (Monash); assay type: physicochemical; settings: for solubility kinetic at 30 min: kinetic from dmso stock
Experimental: Compound in DMSO was spiked into either pH 6.5 phosphate buffer or 0.01 M HCl (approximately pH 2.0) with the final DMSO concentration being 1%. […]
b) Kinetic Solubility Estimation using Nephelometry (SolpH)
Compound in DMSO was spiked into either pH 6.5 phosphate buffer or 0.01 M HCl (approx pH 2.0) with the final
DMSO concentration being 1%. After 30 minutes had elapsed, samples were then analysed via Nephelometry to
determine a solubility range. See Bevan and Lloyd (2000) Anal Chem, 72:1781-1787. […]
In Vitro Intrinsic Clearance […]
(§1) Experimental results are tabulated on the following page(s).
(§2) (1 picture or pasted object on this page, not shown here)

[2] = Human plasma protein binding (PPB); assay type: in vitro ADME; settings: human, plasma
[3] = In vitro metabolic stability, rat liver microsomes (Monash); assay type: in vitro ADME
Experimental: (§3) The metabolic stability assay was performed by incubating each test compound with a suspension of liver microsomes (0.4 mg/mL protein, 1 μM substrate, 37 °C). Microsomes were purchased from XenoTech. The metabolic reaction was initiated by the addition of an NADPH-regenerating system and quenched at various time points over a 60 min incubation by the addition of acetonitrile containing metolazone as an internal standard. Control samples (containing no NADPH) were included (quenched at 2, 30, and 60 min) to monitor for potential degradation in the absence of cofactor. […]
(§4) d) In Vitro Metabolic Stability
(§5) The metabolic stability assay was performed by incubating each test compound with a suspension of liver
(§6) microsomes (0.4 mg/mL, 37°C). The metabolic reaction was initiated by the addition of an NADPH-regenerating
(§7) system and quenched at various time points over a 60 minute incubation by the addition of acetonitrile containing
(§8) metolazone as internal standard. Control samples (containing no NADPH) were included (quenched at 2, 30 and 60
(§9) minutes) to monitor for potential degradation in the absence of cofactor.
(§10) The human liver microsomes used in this experiment were supplied by XenoTech, lot # 1710084.The rat liver
(§11) microsomes used in this experiment were supplied by XenoTech, lot # 1610290. Microsomal incubations were
(§12) performed at a substrate concentration of 1 µM.
(§13) Data analysis and interpretation:
(§14) Substrate depletion as a function of time was analysed as described by Obach (1999) Drug Metab. Dispos., 27:1350-
(§15) 1359. Intrinsic clearance (CLint) values were classified at the limits of low and high clearance bands based on a
(§16) rearrangement of the well stirred model of hepatic elimination. It should be noted that the potential impact of
(§17) compound binding (either in microsomes or in blood) on the relationship between in vitro intrinsic clearance and
(§18) hepatic clearance in vivo has not been accounted for in these studies.
(§19) In Vitro Intrinsic Clearance
(§20) Species (µL/min/mg protein)
(§21) Low Clearance High Clearance
as §1, §2

[4] = In vitro metabolic stability, human liver microsomes (Monash); assay type: in vitro ADME
Experimental: as §3, §4, §5, §6, §7, §8, §9, §10, §11, §12, §13, §14, §15, §16, §17, §18, §19, §20, §21, §1, §2

[5] = test system: Staphylococcus aureus NCTC 13373 (mecA-positive; methicillin-resistant); assay: In vitro antibacterial activity, MIC (UCL School of Pharmacy assay), MRSA; assay type: cell-based; settings: for MIC: Staphylococcus aureus
How it was run: (§22)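 Broth microdilution in isosensitest broth; inoculum from overnight tryptone soya agar culture adjusted to A600 0.1 (~1 × 10^8 CFU/mL) then diluted 1:100. Compounds tested as 2-fold series, 32 to 0.03 μg/mL, DMSO at most 2%; vancomycin as quality control.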

Aqueous solubility = assay type: physicochemical; settings: for solubility: thermodynamic from solid
[6] = test system: S. aureus ATCC 25923 (methicillin-susceptible); assay: In vitro antibacterial activity, MIC (UCL), MSSA; assay type: cell-based, Staphylococcus aureus; settings: Staphylococcus aureus
How it was run: as §22

[7] = test system: Enterococcus faecalis ATCC 51299 (vanA-positive; vancomycin-resistant); assay: In vitro antibacterial activity, MIC (UCL), VRE; assay type: cell-based
How it was run: as §22

[8] = NADPH, read-out: CLint, in vitro
[9] = 0.01 M HCl, simulated gastric fluid, pH 2.0, read-out: Sol (pH 2.0) (Monash)
[10] = pH 6.5 phosphate buffer, pH 6.5, aqueous buffer, read-out: Sol (pH 6.5) (Monash)
[11] = human plasma, NEU, read-out: Human PPB (NEU) (converted)

Compound: c1ccc(-c2nc3n(c2-c2ccc4sccc4c2)CCC3)nc1 [compound 822]
- Sol 2.0 ([1]; 0.01 M HCl, approx pH 2.0): 50 to 100 µg/mL
- Sol 6.5 ([1]; pH 6.5 phosphate buffer): 12.5 to 25 µg/mL
- fraction unbound ([2]; read-out: Human PPB (converted)): 0.023
- microsomal CLint at 1 µM [3, 8]: 503 µL/min/mg
- half-life at 1 µM ([3]; NADPH, read-out: T1/2): 3 min
- microsomal CLint at 1 µM [4, 8]: 72 µL/min/mg
- half-life at 1 µM ([4]; NADPH, read-out: T1/2): 24 min
- MRSA MIC [5]: 4 µg/mL
- activity against MRSA, in words [5]: MRSA-active
- MIC ([5]; 16 h, read-out: MRSA MIC): 2 µg/mL (≈ 6.3 µM)
- MIC ([5]; read-out: MRSA MIC): 2 µg/mL (≈ 6.3 µM)
- solubility (Aqueous solubility; read-out: Aqueous Solubility): 3 µM (≈ 0.952 µg/mL)
- MIC ([6]; read-out: MSSA MIC): 4 µg/mL (≈ 12.6 µM)
- MIC ([7]; read-out: VRE MIC): 8 µg/mL (≈ 25.2 µM)

Compound: c1ccc(-c2nc3n(c2-c2ccc4occc4c2)CCC3)nc1 [compound 821]
- solubility kinetic at 30 min [1, 9]: > 100 µg/mL
- solubility kinetic at 30 min [1, 10]: 25 to 50 µg/mL (≈ 83 to 166 µM)
- fraction unbound [2, 11]: 0.028
- microsomal CLint at 1 µM ([3]; Monash, read-out: RLM Clint (Monash)): 72 µL/min/mg
- half-life at 1 µM ([3]; Monash, read-out: RLM t1/2 (Monash)): 24 min
- microsomal CLint at 1 µM ([4]; Monash, read-out: HLM Clint (Monash)): 51 µL/min/mg
- half-life at 1 µM ([4]; Monash, read-out: HLM t1/2 (Monash)): 34 min
- MIC ([5]; 16 h, read-out: MRSA MIC): 4 µg/mL (≈ 13.3 µM)
- MIC ([5]; UCL, read-out: MRSA MIC (UCL)): 2 µg/mL (≈ 6.64 µM)
- MIC ([5]; read-out: MRSA MIC): 2 µg/mL (≈ 6.64 µM)
- solubility (Aqueous solubility; NEU, read-out: Aqueous Solubility (NEU)): 117 µM (≈ 35.3 µg/mL)
- MIC ([6]; read-out: MSSA MIC (UCL)): 2 µg/mL (≈ 6.64 µM)
- MIC ([7]; read-out: VRE MIC): 2 µg/mL (≈ 6.64 µM)

Compound: c1ccc(-c2nc3n(c2-c2ccc4sccc4c2)CCC3)nc1 [OSA_000822]
- solubility kinetic at 30 min [1, 9]: 50 to 100 µg/mL (≈ 158 to 315 µM)
- solubility kinetic at 30 min [1, 10]: 12.5 to 25 µg/mL (≈ 39.4 to 78.8 µM)
- fraction unbound [2, 11]: 0.023
- RLM Clint (Monash) ([3]; Monash): 503 µL/min/mg
- RLM t1/2 (Monash) ([3]; Monash): 3 min
- HLM Clint (Monash) ([4]; Monash): 72 µL/min/mg
- HLM t1/2 (Monash) ([4]; Monash): 24 min
- MIC ([5]; UCL, read-out: MRSA MIC (UCL)): 4 µg/mL (≈ 12.6 µM)
- Aqueous Solubility (NEU) (Aqueous solubility; NEU): 3 µM
- MIC ([6]; read-out: MSSA MIC (UCL)): 4 µg/mL (≈ 12.6 µM)
- MIC ([7]; read-out: VRE MIC (UCL)): 8 µg/mL (≈ 25.2 µM)
